Experimental data taken from the supplement of paper PMC11368000.

Legend:
Details in all cases: exposure time: 90 min
[1] = tested on: 1518 (donor line of iPSC-derived cardiomyocytes); assay: POD (EC95) for loss of peak frequency (asystole) vs vehicle; higher = less potent (higher point of departure)
How it was run: (§1)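 Human iPSC-derived cardiomyocytes from 16 donors, dye-loaded for Ca2+, were treated for 90 min at 37 °C at final concentrations of 0.1, 1, 10 and 100 µM in 0.5% DMSO. Ca2+ flux was measured on a FLIPR Tetra before and after treatment. Hierarchical Bayesian Hill fitting of vehicle-normalised beat frequency, decay-to-rise ratio or peak frequency yielded donor-specific points of departure. Thresholds: 5% change, or 95% loss for peak frequency.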

[2] = tested on: 1368 (donor line of iPSC-derived cardiomyocytes); assay: as above
How it was run: as §1

[3] = tested on: 1083 (donor line of iPSC-derived cardiomyocytes); assay: as above
How it was run: as §1

[4] = tested on: 11235 (donor line of iPSC-derived cardiomyocytes); assay: as above
How it was run: as §1

[5] = tested on: 30171 (donor line of iPSC-derived cardiomyocytes); assay: as above
How it was run: as §1

[6] = tested on: 1309 (donor line of iPSC-derived cardiomyocytes); assay: as above
How it was run: as §1

[7] = tested on: 20084 (donor line of iPSC-derived cardiomyocytes); assay: as above
How it was run: as §1

[8] = tested on: 1118 (donor line of iPSC-derived cardiomyocytes); assay: as above
How it was run: as §1

[9] = tested on: 1518; assay: POD (EC10) for decrease in total cell number (cytotoxicity) vs vehicle; higher = less potent (higher point of departure)
How it was run: (§2)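 Donor-specific cytotoxicity points of departure were derived from hierarchical Bayesian Hill fits to vehicle-normalised nuclear counts. The benchmark for these fits was a 10% decrease. The cells were human iPSC-derived cardiomyocytes from 16 donors, cultured 14 days in 384-well plates and exposed for 90 min at 37 °C to 0.1, 1, 10 and 100 µM (final, 0.5% DMSO). Following a Ca2+ flux read, they were stained for 15 min with Hoechst 33342 (2.2 µg/mL) and MitoTracker Orange, imaged at 10× on an ImageXpress Micro Confocal, and their nuclei counted per field in MetaXpress.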

[10] = tested on: 1368; assay: as above
How it was run: as §2

[11] = tested on: 1531 (donor line of iPSC-derived cardiomyocytes); assay: as above
How it was run: as §2

[12] = tested on: 20032 (donor line of iPSC-derived cardiomyocytes); assay: as above
How it was run: as §2

[13] = tested on: 1434 (donor line of iPSC-derived cardiomyocytes); assay: as above
How it was run: as §2

[14] = tested on: 1083; assay: as above
How it was run: as §2

[15] = tested on: 11235; assay: as above
How it was run: as §2

[16] = tested on: 30171; assay: as above
How it was run: as §2

[17] = tested on: 1309; assay: as above
How it was run: as §2

[18] = tested on: 1535 (donor line of iPSC-derived cardiomyocytes); assay: as above
How it was run: as §2

[19] = tested on: 1565 (donor line of iPSC-derived cardiomyocytes); assay: as above
How it was run: as §2

[20] = tested on: 1118; assay: as above
How it was run: as §2

SMILES | POD vs vehicle [1] [µM] | POD vs vehicle [2] [µM] | POD vs vehicle [3] [µM] | POD vs vehicle [4] [µM] | POD vs vehicle [5] [µM] | POD vs vehicle [6] [µM] | POD vs vehicle [7] [µM] | POD vs vehicle [8] [µM] | POD vs vehicle [9] [µM] | POD vs vehicle [10] [µM] | POD vs vehicle [11] [µM] | POD vs vehicle [12] [µM] | POD vs vehicle [13] [µM] | POD vs vehicle [14] [µM] | POD vs vehicle [15] [µM] | POD vs vehicle [16] [µM] | POD vs vehicle [17] [µM] | POD vs vehicle [18] [µM] | POD vs vehicle [19] [µM] | POD vs vehicle [20] [µM]
O=C(O)C(F)(F)C(F)(F)C(F)(F)C(F)(F)C(F)(F)C(F)(F)C(F)(F)C(F)(F)Cl [9-Chloro-perfluorononanoic_acid] | > 100 | > 100 | > 100 | 14.7 | 44.1 | > 100 | > 100 | 84.3 | > 100 | > 100 | > 100 | > 100 | 36.7 | > 100 | > 100 | 30.5 | > 100 | > 100 | > 100 | > 100
O=C(O)C(F)(F)C(F)(F)C(F)(F)C(F)(F)C(F)(F)C(F)(F)C(F)(F)C(F)(F)C(F)(F)C(F)(F)F [Perfluoroundecanoic_acid] | > 100 | > 100 | > 100 | 95.4 | > 100 | > 100 | > 100 | > 100 | > 100 | > 100 | > 100 | > 100 | > 100 | > 100 | > 100 | > 100 | > 100 | > 100 | > 100 | > 100
O=C(O)C(F)(F)OC(F)(F)C(F)(F)OC(F)(F)C(F)(F)OC(F)(F)C(F)(F)C(F)(F)C(F)(F)F [Perfluoro-3,6,9-trioxatridecanoic_acid] | > 100 | > 100 | 79.4 | 92.2 | 73 | > 100 | > 100 | 63.7 | > 100 | > 100 | > 100 | > 100 | 33.3 | > 100 | > 100 | 59.5 | > 100 | > 100 | > 100 | > 100
O=C(O)CCC(F)(F)C(F)(F)C(F)(F)F [3:3 Fluorotelomer carboxylic acid] | > 100 | > 100 | > 100 | > 100 | > 100 | > 100 | > 100 | > 100 | > 100 | > 100 | > 100 | > 100 | > 100 | > 100 | > 100 | > 100 | > 100 | > 100 | > 100 | > 100
O=C([O-])C(F)(F)C(F)(F)C(F)(F)C(F)(F)C(F)(F)C(F)(F)C(F)(F)F.[NH4+] [Ammonium_perfluorooctanoate] | > 100 | > 100 | > 100 | 72.4 | > 100 | > 100 | > 100 | > 100 | > 100 | > 100 | > 100 | > 100 | > 100 | > 100 | > 100 | > 100 | > 100 | > 100 | > 100 | > 100
